This is an account of results in PMC4737155 (Nucleic Acids Research, 2015).

Experiment in all cases: biochemical
For experiment [1], the target named is T1, SaTrm10 (Sulfolobus acidocaldarius, UniProt Q4J894).
T1 sequence (Q4J894 1-292): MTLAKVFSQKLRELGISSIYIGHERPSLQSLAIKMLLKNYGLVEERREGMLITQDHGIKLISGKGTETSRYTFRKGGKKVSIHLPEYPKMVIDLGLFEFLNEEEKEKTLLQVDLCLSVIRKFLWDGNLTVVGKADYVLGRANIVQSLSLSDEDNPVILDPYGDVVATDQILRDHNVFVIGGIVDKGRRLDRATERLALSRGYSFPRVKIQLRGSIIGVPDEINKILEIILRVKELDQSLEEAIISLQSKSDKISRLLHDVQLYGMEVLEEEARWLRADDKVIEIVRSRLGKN

In experiment [2] the target is SaTrm10 (Sulfolobus acidocaldarius, UniProt Q4J894, D220N).
Chain of SaTrm10 (Sulfolobus acidocaldarius, UniProt Q4J894, D220N) (Q4J894 whole entry D220N): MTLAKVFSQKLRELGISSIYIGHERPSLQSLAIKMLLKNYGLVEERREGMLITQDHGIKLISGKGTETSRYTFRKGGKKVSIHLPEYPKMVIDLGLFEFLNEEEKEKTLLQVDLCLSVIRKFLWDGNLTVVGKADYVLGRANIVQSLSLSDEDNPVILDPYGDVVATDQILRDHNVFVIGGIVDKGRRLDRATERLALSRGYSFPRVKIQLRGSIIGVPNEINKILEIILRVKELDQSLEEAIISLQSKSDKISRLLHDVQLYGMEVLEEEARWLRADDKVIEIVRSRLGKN
Experiment [3] addresses SaTrm10 (Sulfolobus acidocaldarius, UniProt Q4J894, D184N).

Chain of SaTrm10 (Sulfolobus acidocaldarius, UniProt Q4J894, D184N) (Q4J894 whole entry D184N): as the sequence (Q4J894 whole entry D220N) above, with D184N, N220D counted along it

One may read the Kd as a measure of binding affinity in units of concentration. A higher Kd goes with a looser complex. Consider `C[S+](CC[C@H](N)C(=O)O)C[C@H]1O[C@@H](n2cnc3c(N)ncnc32)[C@H](O)[C@@H]1O` (stereo partly drawn) [S-adenosyl methionine], for which the Kd was determined as 33 ± 4 µM at SaTrm10 [1], 47 ± 8 µM on SaTrm10 [2] and 28 ± 5 µM at SaTrm10 [3].
